From US20030180339A1, “Topical treatment of skin” (priority 2002, published 2003)

Tested on: sebum
Assay: Oil reduction potential of moisturising gels, blinded randomised study in India, Sebumeter SM810 (Example 34)
Format: in vivo, human
Experimental: A study was conducted on 37 normal volunteers in India to determine the oil reduction potential of moisturising gels containing sebum reduction agents.
This study was a blinded, randomised study comparing 2 test gels (containing Cedar wood and Poplar bud) with standard preparation (containing Elubiol).
Women volunteers between the age of 17 and 19 years were screened by measuring sebumeter readings of the left forehead using a Sebumeter SM810. Those volunteers had subumeter reading of […] or above.
These volunteers were instructed to avoid any other face cream, face wash or any other cosmetics during the 8 weeks of the study. After recruitment, volunteers were instructed to use the face wash for the first 2 weeks. This period was considered as the conditioning period.
A baseline sebumeter reading was taken at the end of the conditioning period on 4 sites i.e. left forehead, left cheek, right forehead, and right cheek. Tubes containing the test medicines (which were coded and randomly allocated to each site) were dispensed to the volunteers. Each volunteer was given two test gels, one for left side of the face and the other for right side of the face. […]
The volunteer was requested to make a note of application of face wash and face cream daily on the given diary sheets. Sebumeter readings were taken 3 weeks and 6 weeks later.

## CCOC(=O)N1CCN(c2ccc(OC[C@H]3CO[C@](Cn4ccnc4)(c4ccc(Cl)cc4Cl)O3)cc2)CC1 [Elubiol, dichlorophenyl-imidazoltioxolan]
At 6 weeks
  effect on sebumeter readings, comparison between treatments: improved
Gel twice a day
  fall in the sebum reading at 6 weeks as compared to 3 weeks: significantly greater fall
